We go through three molecules from patent publication US9693997B2, “Antiviral compounds” (priority 2013, dated 2017).

Assay in all cases: microbe, parasite or virus in culture
Test [1] deals with pseudotyped VSV G particles (VSVpp) in Huh7-high CD81 cells. The class given is cell-based, vesicular stomatitis virus. The conditions noted are these: Vesicular stomatitis virus, 72 h, read-out: VSVpp (EC50, μM).
For test [2], the system named is Pseudotyped HCV GT1a particles (HCVpp), entry into Huh7-high CD81 cells. The class given is cell-based, HCV GT1a H77 strain. The note with it: Hepatitis C virus, 72 h, read-out: HCVpp GT-1a (EC50, μM).
The test system of test [3] is Pseudotyped HCV GT1b particles (HCVpp), entry into Huh7-high CD81 cells. The class given is cell-based, HCV GT1b Con1 strain. The note with it: Hepatitis C virus, GT1B, 72 h, read-out: HCVpp GT-1b (EC50, μM).

Bounds are passed on as bounds.

A word on the EC50: it is the concentration at which the effect is half-maximal.

Regarding `CN(C)S(=O)(=O)c1ccc(-c2c(F)cc(Nc3n[nH]c(N)n3)cc2Cl)cc1` [Compound 34, 4′-(5-Amino-1H-[1,2,4]triazol-3-ylamino)-2′-chloro-6′-fluoro-biphenyl-4-sulfonic acid dimethylamide], the EC50 is more than 10 µM in test [1], 0.028 µM in test [2] and 0.122 µM in test [3].
Taken in the same sequence, the figures for `Nc1nc(Nc2cc(Cl)c(-c3ccc(S(=O)(=O)N4CCCC4)cc3)c(C(F)(F)F)c2)n[nH]1` [Compound 170, N3-(2-chloro-4′-(pyrrolidin-1-ylsulfonyl)-6-(trifluoromethyl)biphenyl-4-yl)-1H-1,2,4-triazole-3,5-diamine] were 14.1 µM, 0.02 µM and 0.026 µM.
On the same counts, the results for `COc1ccc(-c2c(Cl)cc(Nc3n[nH]c(N)n3)cc2C(F)(F)F)cc1S(=O)(=O)N1CCOCC1` [Compound 177, N3-(2-chloro-4′-methoxy-3′-(morpholinosulfonyl)-6-(trifluoromethyl)biphenyl-4-yl)-1H-1,2,4-triazole-3,5-diamine] are 23.4 µM, 0.003 µM and 0.018 µM.
